Results: the NIST ThermoML archive (doi:10.1021/acs.jced.6b00121)

Assay: xn = mol fraction of the nth substance listed
Conditions: 100 kPa, Liquid; for viscosity: Falling or rolling sphere viscometry; for mass density: Vibrating tube method

CCCCCCCCCCC [undecane] + CCCCCCO
Conditions | mass density [kg/m3] | viscosity [mPa·s]
283.15 K, x1 = 0.1011 | 812.86 | 5.655
283.15 K, x1 = 0.1989 | 802.1 | 4.274
283.15 K, x1 = 0.2998 | 792.19 | 3.34
283.15 K, x1 = 0.4001 | 783.5 | 2.615
283.15 K, x1 = 0.4994 | 775.87 | 2.198
283.15 K, x1 = 0.6004 | 768.89 | 1.95
283.15 K, x1 = 0.6989 | 762.82 | 1.72
283.15 K, x1 = 0.8001 | 757.18 | 1.564
283.15 K, x1 = 0.8991 | 752.28 | 1.455
283.15 K, x1 = 1 | 747.78 | 1.371
288.15 K, x1 = 0.1011 | 809.29 | 4.784
288.15 K, x1 = 0.1989 | 798.49 | 3.651
288.15 K, x1 = 0.2998 | 788.53 | 2.88
288.15 K, x1 = 0.4001 | 779.81 | 2.322
288.15 K, x1 = 0.4994 | 772.18 | 2.019
288.15 K, x1 = 0.6004 | 765.18 | 1.752
288.15 K, x1 = 0.6989 | 759.1 | 1.554
288.15 K, x1 = 0.8001 | 753.47 | 1.419
288.15 K, x1 = 0.8991 | 748.57 | 1.329
288.15 K, x1 = 1 | 744.06 | 1.249
293.15 K, x1 = 0.1011 | 805.71 | 4.073
293.15 K, x1 = 0.1989 | 794.85 | 3.136
293.15 K, x1 = 0.2998 | 784.85 | 2.505
293.15 K, x1 = 0.4001 | 776.12 | 2.118
293.15 K, x1 = 0.4994 | 768.47 | 1.808
293.15 K, x1 = 0.6004 | 761.46 | 1.58
293.15 K, x1 = 0.6989 | 755.38 | 1.41
293.15 K, x1 = 0.8001 | 749.75 | 1.293
293.15 K, x1 = 0.8991 | 744.85 | 1.218
293.15 K, x1 = 1 | 740.35 | 1.145
298.15 K, x1 = 0.1011 | 802.1 | 3.494
298.15 K, x1 = 0.1989 | 791.2 | 2.719
298.15 K, x1 = 0.2998 | 781.16 | 2.198
298.15 K, x1 = 0.4001 | 772.4 | 1.886
298.15 K, x1 = 0.4994 | 764.75 | 1.626
298.15 K, x1 = 0.6004 | 757.73 | 1.432
298.15 K, x1 = 0.6989 | 751.65 | 1.284
298.15 K, x1 = 0.8001 | 746.02 | 1.182
298.15 K, x1 = 0.8991 | 741.12 | 1.116
298.15 K, x1 = 1 | 736.64 | 1.062
303.15 K, x1 = 0.1011 | 798.47 | 3.016
303.15 K, x1 = 0.1989 | 787.52 | 2.374
303.15 K, x1 = 0.2998 | 777.45 | 1.952
303.15 K, x1 = 0.4001 | 768.67 | 1.687
303.15 K, x1 = 0.4994 | 761.01 | 1.47
303.15 K, x1 = 0.6004 | 753.98 | 1.305
303.15 K, x1 = 0.6989 | 747.89 | 1.176
303.15 K, x1 = 0.8001 | 742.27 | 1.09
303.15 K, x1 = 0.8991 | 737.38 | 1.031
303.15 K, x1 = 1 | 732.93 | 0.982
308.15 K, x1 = 0.1011 | 794.81 | 2.62
308.15 K, x1 = 0.1989 | 783.82 | 2.09
308.15 K, x1 = 0.2998 | 773.71 | 1.746
308.15 K, x1 = 0.4001 | 764.91 | 1.517
308.15 K, x1 = 0.4994 | 757.24 | 1.334
308.15 K, x1 = 0.6004 | 750.21 | 1.193
308.15 K, x1 = 0.6989 | 744.12 | 1.08
308.15 K, x1 = 0.8001 | 738.5 | 1.002
308.15 K, x1 = 0.8991 | 733.62 | 0.954
308.15 K, x1 = 1 | 729.23 | 0.91
313.15 K, x1 = 0.1011 | 791.12 | 2.29
313.15 K, x1 = 0.1989 | 780.08 | 1.857
313.15 K, x1 = 0.2998 | 769.94 | 1.574
313.15 K, x1 = 0.4001 | 761.13 | 1.372
313.15 K, x1 = 0.4994 | 753.45 | 1.226
313.15 K, x1 = 0.6004 | 746.41 | 1.106
313.15 K, x1 = 0.6989 | 740.32 | 0.996
313.15 K, x1 = 0.8001 | 734.71 | 0.927
313.15 K, x1 = 0.8991 | 729.84 | 0.886
313.15 K, x1 = 1 | 725.53 | 0.847
318.15 K, x1 = 0.1011 | 787.39 | 2.02
318.15 K, x1 = 0.1989 | 776.31 | 1.664
318.15 K, x1 = 0.2998 | 766.14 | 1.437
318.15 K, x1 = 0.4001 | 757.31 | 1.245
318.15 K, x1 = 0.4994 | 749.63 | 1.1
318.15 K, x1 = 0.6004 | 742.59 | 1.008
318.15 K, x1 = 0.6989 | 736.5 | 0.921
318.15 K, x1 = 0.8001 | 730.9 | 0.861
318.15 K, x1 = 0.8991 | 726.05 | 0.822
318.15 K, x1 = 1 | 721.82 | 0.79
323.15 K, x1 = 0.1011 | 783.63 | 1.799
323.15 K, x1 = 0.1989 | 772.51 | 1.528
323.15 K, x1 = 0.2998 | 762.31 | 1.301
323.15 K, x1 = 0.4001 | 753.47 | 1.136
323.15 K, x1 = 0.4994 | 745.77 | 1.011
323.15 K, x1 = 0.6004 | 738.74 | 0.931
323.15 K, x1 = 0.6989 | 732.65 | 0.853
323.15 K, x1 = 0.8001 | 727.06 | 0.801
323.15 K, x1 = 0.8991 | 722.24 | 0.773
323.15 K, x1 = 1 | 718.11 | 0.74
328.15 K, x1 = 0.1011 | 779.82 | 1.612
328.15 K, x1 = 0.1989 | 768.66 | 1.374
328.15 K, x1 = 0.2998 | 758.44 | 1.18
328.15 K, x1 = 0.4001 | 749.58 | 1.039
328.15 K, x1 = 0.4994 | 741.89 | 0.93
328.15 K, x1 = 0.6004 | 734.86 | 0.862
328.15 K, x1 = 0.6989 | 728.77 | 0.793
328.15 K, x1 = 0.8001 | 723.2 | 0.747
328.15 K, x1 = 0.8991 | 718.41 | 0.724
328.15 K, x1 = 1 | 714.39 | 0.692
333.15 K, x1 = 0.1011 | 775.97 | 1.466
333.15 K, x1 = 0.1989 | 764.78 | 1.24
333.15 K, x1 = 0.2998 | 754.53 | 1.073
333.15 K, x1 = 0.4001 | 745.66 | 0.955
333.15 K, x1 = 0.4994 | 737.97 | 0.859
333.15 K, x1 = 0.6004 | 730.93 | 0.801
333.15 K, x1 = 0.6989 | 724.87 | 0.738
333.15 K, x1 = 0.8001 | 719.31 | 0.699
333.15 K, x1 = 0.8991 | 714.55 | 0.681
333.15 K, x1 = 1 | 710.68 | 0.651
338.15 K, x1 = 0.1011 | 772.08 | 1.318
338.15 K, x1 = 0.1989 | 760.84 | 1.124
338.15 K, x1 = 0.2998 | 750.57 | 0.982
338.15 K, x1 = 0.4001 | 741.7 | 0.878
338.15 K, x1 = 0.4994 | 734.01 | 0.796
338.15 K, x1 = 0.6004 | 726.99 | 0.744
338.15 K, x1 = 0.6989 | 720.93 | 0.691
338.15 K, x1 = 0.8001 | 715.39 | 0.656
338.15 K, x1 = 0.8991 | 710.68 | 0.641
338.15 K, x1 = 1 | 706.95 | 0.615
343.15 K, x1 = 0.1011 | 768.13 | 1.189
343.15 K, x1 = 0.1989 | 756.86 | 1.025
343.15 K, x1 = 0.2998 | 746.58 | 0.901
343.15 K, x1 = 0.4001 | 737.7 | 0.811
343.15 K, x1 = 0.4994 | 730.01 | 0.739
343.15 K, x1 = 0.6004 | 723 | 0.695
343.15 K, x1 = 0.6989 | 716.95 | 0.647
343.15 K, x1 = 0.8001 | 711.44 | 0.616
343.15 K, x1 = 0.8991 | 706.79 | 0.604
343.15 K, x1 = 1 | 703.22 | 0.58
348.15 K, x1 = 0.1011 | 764.12 | 1.054
348.15 K, x1 = 0.1989 | 752.83 | 0.934
348.15 K, x1 = 0.2998 | 742.54 | 0.828
348.15 K, x1 = 0.4001 | 733.66 | 0.75
348.15 K, x1 = 0.4994 | 725.98 | 0.687
348.15 K, x1 = 0.6004 | 718.97 | 0.652
348.15 K, x1 = 0.6989 | 712.94 | 0.607
348.15 K, x1 = 0.8001 | 707.47 | 0.58
348.15 K, x1 = 0.8991 | 702.87 | 0.571
348.15 K, x1 = 1 | 699.47 | 0.549
353.15 K, x1 = 0.1011 | 760.07 | 0.981
353.15 K, x1 = 0.1989 | 748.76 | 0.855
353.15 K, x1 = 0.2998 | 738.45 | 0.765
353.15 K, x1 = 0.4001 | 729.57 | 0.696
353.15 K, x1 = 0.4994 | 721.9 | 0.642
353.15 K, x1 = 0.6004 | 714.9 | 0.611
353.15 K, x1 = 0.6989 | 708.9 | 0.572
353.15 K, x1 = 0.8001 | 703.47 | 0.546
353.15 K, x1 = 0.8991 | 698.94 | 0.54
353.15 K, x1 = 1 | 695.72 | 0.522
358.15 K, x1 = 0.1011 | 755.96 | 0.895
358.15 K, x1 = 0.1989 | 744.62 | 0.787
358.15 K, x1 = 0.2998 | 734.31 | 0.707
358.15 K, x1 = 0.4001 | 725.43 | 0.649
358.15 K, x1 = 0.4994 | 717.76 | 0.6
358.15 K, x1 = 0.6004 | 710.79 | 0.573
358.15 K, x1 = 0.6989 | 704.82 | 0.54
358.15 K, x1 = 0.8001 | 699.43 | 0.516
358.15 K, x1 = 0.8991 | 694.99 | 0.512
358.15 K, x1 = 1 | 691.96 | 0.497
363.15 K, x1 = 0.1011 | 751.78 | 0.82
363.15 K, x1 = 0.1989 | 740.43 | 0.726
363.15 K, x1 = 0.2998 | 730.12 | 0.657
363.15 K, x1 = 0.4001 | 721.24 | 0.605
363.15 K, x1 = 0.4994 | 713.59 | 0.562
363.15 K, x1 = 0.6004 | 706.64 | 0.54
363.15 K, x1 = 0.6989 | 700.7 | 0.512
363.15 K, x1 = 0.8001 | 695.37 | 0.49
363.15 K, x1 = 0.8991 | 691.02 | 0.487
363.15 K, x1 = 1 | 688.18 | 0.475
